For orientation: inhibition means how much of the control response was suppressed. In general, IC50 refers to the concentration that gives 50% inhibition.

T1 sequence (P26663 2420-3010): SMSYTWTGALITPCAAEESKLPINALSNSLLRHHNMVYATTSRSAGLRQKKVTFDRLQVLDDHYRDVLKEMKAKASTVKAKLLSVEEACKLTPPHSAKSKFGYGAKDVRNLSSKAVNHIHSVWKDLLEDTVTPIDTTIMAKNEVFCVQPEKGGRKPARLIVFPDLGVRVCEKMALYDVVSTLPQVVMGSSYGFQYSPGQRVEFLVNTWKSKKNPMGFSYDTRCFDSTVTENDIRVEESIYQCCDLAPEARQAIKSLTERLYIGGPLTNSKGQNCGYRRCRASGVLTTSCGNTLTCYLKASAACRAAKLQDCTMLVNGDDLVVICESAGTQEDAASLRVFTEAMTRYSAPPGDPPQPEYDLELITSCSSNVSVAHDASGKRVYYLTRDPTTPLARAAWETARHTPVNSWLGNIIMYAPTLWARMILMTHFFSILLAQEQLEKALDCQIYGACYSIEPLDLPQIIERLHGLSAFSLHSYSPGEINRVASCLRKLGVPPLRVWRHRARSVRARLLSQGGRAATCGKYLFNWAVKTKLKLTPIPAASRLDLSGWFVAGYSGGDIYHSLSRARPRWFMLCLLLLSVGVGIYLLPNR

The first assay concerns the target T1, HCV polymerase (Hepatitis C virus genotype 1b, UniProt P26663).
T1 construct: 2.5 pmoles (0.15 μg) HCV polymerase protein in a final volume of 75 μL
Briefly: HCV Polymerase Inhibition Assay. To be noted: @ 50 μM compound; given where it was impractical to calculate an IC50. The class given is biochemical. As for the experimental part: HCV Polymerase Inhibition Assay
The above-described compounds were tested for activity with HCV polymerase. Recombinant HCV polymerase was tested for its ability to perform primer/template-directed transcription in assays that contained 30 mM tris-HCl pH 7.2, 10 mM MgCl2, 20 mM NaCl, 1 mM Dithiothreitol (DTT), 0.05% Tween-20, 1% glycerol, 5 pmoles biotin-dG12 (primer), 0.5 pmoles poly(rC)300 (template), 1 μM GTP, 0.1-0.3 uCi α-^32P-GTP, and 2.5 pmoles (0.15 μg) HCV polymerase protein in a final volume of 75 μL. Reactions were initiated by addition of enzyme and incubated 30 minutes at 30° C. Reactions were stopped by addition of 33 mM EDTA, and polynucleotide products were collected by filtration through Diethylaminoethyl (DE) Filtermat papers (Wallac). Unincorporated triphosphate was removed by washing the filters with 5% dibasic sodium phosphate. The filters were counted in a Packard Tri-Lux Microbeta scintillation counter (Packard Bioscience, Meriden, Conn.). Compounds to be tested were added at various concentrations, e.g., 1 μm to 50 μm, from stocks in 10% DMSO-water (final DMSO is 1% in reaction).
IC50 values were estimated from the primary cpm data (collected in triplicate) using the formula: cpm (I)=cpm (no inhibitor)(1−([I]/([I]+IC50))). An IC50 value represents the concentration (in μM) of a compound that provides 50% inhibition of polymerase-directed transcription in the above assay. A percent inhibition value is expressed for a compound where it was impractical to calculate an IC50 value with available data. If the IC50 estimated by the above equation was less than 200 nM, it was recalculated using the following equation, which takes into account the enzyme concentration (30 nM) in the assay: cpm(I)=cpm(no inhibitor)(1−((((I+IC50+30e−9)−sqrt(((I+IC50+30e−9)^2)−4×30e−9×1)))/((2) (30e−9))). Curve fitting was performed using the program KaleidaGraph (Synergy Software, Reading, Pa.).
With `CCOC1=CC(=O)OC(CCC#Cc2cccc(O)c2)(C2CCCC2)C1` (centres unmarked) [Example 15, 6-cyclopentyl-4-ethoxy-6-[4-(3-hydroxy-phenyl)-but-3-ynyl]-5,6-dihydro-pyran-2-one], the inhibition at 50 µM was 27%.

The assay is the same for the next values; noted with them: recombinant HCV polymerase, primer/template-directed transcription (biotin-dG12/poly(rC)300), 30 minutes at 30° C.
`O=C1CC(CCC#Cc2cccc(O)c2)(C2CCCC2)OC(=O)C1Sc1ccccc1` (centres unmarked) [Example 17, 6-Cyclopentyl-6-[4-(3-hydroxy-phenyl)-but-3-ynyl]-3-phenylsulfanyl-dihydro-pyran-2,4-dione]: the IC50 was determined as 7.6 µM.

For `O=C1CC(=O)OC(CCC#Cc2ccccc2)(C2CCCC2)C1` (centres unmarked) [Example 6, 6-cyclopentyl-6-(4-phenyl-but-3-ynyl)-dihydro-pyran-2,4-dione], the IC50 stood at 8.29 µM.

Consider `COc1ccc(C#CC2(C3CCCC3)CC(=O)CC(=O)O2)cc1` (centres unmarked) [Example 1, 6-cyclopentyl-6-[(4-methoxyphenyl)ethynyl]dihydro-2H-pyran-2,4(3H)-dione], for which the IC50 worked out at 12 µM.

Regarding `COc1cccc(C#CCCC2(C3CCCC3)CC(=O)CC(=O)O2)c1` (centres unmarked) [Example 7, 6-Cyclopentyl-6-[4-(3-methoxy-phenyl)-but-3-ynyl]-dihydro-pyran-2,4-dione], the IC50 is 12.1 µM.

`O=C1CC(=O)OC(CCC#Cc2cccc(O)c2)(C2CCCC2)C1` (centres unmarked) [Example 13, 6-Cyclopentyl-6-[4-(3-hydroxy-phenyl)-but-3-ynyl]-dihydro-pyran-2,4-dione]: the IC50 stood at 4.5 µM.

Consider `COC(=O)Cc1ccc(C#CC2(C3CCCC3)CC(=O)CC(=O)O2)cc1` (centres unmarked) [Example 4], for which the IC50 was found to be 64.6 µM.

With `O=C1CC(=O)OC(C#Cc2nccs2)(C2CCCC2)C1` (centres unmarked) [Example 2, Cyclopentyl-6-(1,3-thiazol-2-ylethynyl)dihydro-2H-pyran-2,4(3H)-dione], the IC50 worked out at 2.1 µM.

As to `CC(C)c1cccc(C#CC2(C3CCCC3)CC(=O)CC(=O)O2)c1` (centres unmarked) [Example 3], the IC50 came out at 8.5 µM.

Consider `O=C1CC(=O)OC(CCC#Cc2ccc3c(c2)OCCO3)(C2CCCC2)C1` (centres unmarked) [Example 9, 6-Cyclopentyl-6-[4-(2,3-dihydro-benzo[1,4]dioxin-6-yl)-but-3-ynyl]-dihydro-pyran-2,4-dione], for which the IC50 is 11.7 µM.

Regarding `O=C1CC(=O)OC(CCC#Cc2ccc3c(c2)OCO3)(C2CCCC2)C1` (centres unmarked) [Example 10, 6-(4-Benzo[1,3]dioxol-5-yl-but-3-ynyl)-6-cyclopentyl-dihydro-pyran-2,4-dione], the IC50 is 10.7 µM.

`CC(=O)Nc1ccc(C#CCCC2(C3CCCC3)CC(=O)CC(=O)O2)cn1` (centres unmarked) [Example 11, N-{5-[4-(2-Cyclopentyl-4,6-dioxo-tetrahydro-pyran-2-yl)-but-1-ynyl]-pyridin-2-yl}-acetamide]: the concentration for half-maximal inhibition (IC50) came out at 67 µM.

`C#CCCC1(C2CCCC2)CC(=O)C(Sc2ccccc2)C(=O)O1` (centres unmarked) [Example 16, 6-But-3-ynyl-6-cyclopentyl-3-phenylsulfanyl-dihydro-pyran-2,4-dione]: the IC50 worked out at 80 µM.

Regarding `O=C1CC(=O)OC(CCC#Cc2ccc3scnc3c2)(C2CCCC2)C1` (centres unmarked) [Example 8, 6-(4-Benzothiazol-5-yl-but-3-ynyl)-6-cyclopentyl-dihydro-pyran-2,4-dione], the IC50 stood at 4.5 µM.

As to `COC(=O)Cc1ccc(C#CCCC2(C3CCCC3)CC(=O)CC(=O)O2)cc1` (centres unmarked) [Example 12, {4-[4-(2-cyclopentyl-4,6-dioxo-tetrahydro-pyran-2-yl)-but-1-ynyl]-phenyl}-acetic acid methyl ester], the IC50 stood at 10.2 µM.

As for `C#CCCC1(C2CCCC2)CC(=O)CC(=O)O1` (centres unmarked) [Example 5, 6-but-3-ynyl-6-cyclopentyl-dihydro-pyran-2,4-dione], the IC50 stood at 74 µM.

Take `O=C1CC(=O)OC(CCC#Cc2ccc3ocnc3c2)(C2CCCC2)C1` (centres unmarked) [Example 14, 6-(4-benzooxazol-5-yl-but-3-ynyl)-6-cyclopentyl-dihydro-pyran-2,4-dione]: the IC50 was determined as 5.8 µM.

(Values after patent publication US6878727B2 (Agouron Pharmaceuticals, Inc., priority 2002, dated 2005).)
